Results: patent US20230364057A1, “BACTERIAL DNA GYRASE INHIBITORS AND METHODS OF USE THEREOF” (THE FLORIDA INTERNATIONAL UNIVERSITY BOARD OF TRUSTEES, priority 2022, published 2023)
Values after ≈ are worked out from the molar mass of the structure shown. Values joined by “and” are separate entries in the source; they are usually repeats but may differ in a detail not shown here. Identical values can stand only once. Like-named read-outs stand apart in the source and are kept apart here.

Legend:
[1] = target: T1, E. coli DNA topoisomerase IV (Escherichia coli (strain K12), UniProt P0AFI2+P20083); experiment: E. coli DNA topoisomerase IV relaxation assay (gel-based); assay type: biochemical; conditions: for IC50: IC50 Topoisomerase IV Gel-based, Table 8
Description: (§1) Relaxation assays by E. coli DNA topoisomerase IV and the ATPase assays were performed. […] Lane 1 is supercoiled plasmid pAB1. […] The supercoiled, fluorescently-labeled plasmid pAB1_FL905 was used.

E. coli (ATCC 25922) = experiment: Minimum inhibitory concentration, broth microdilution; conditions: Escherichia coli
Description: (§2) Antibacterial minimum inhibitory concentrations (MICs) were obtained from three independent experiments using broth microdilution methods in 96-well plates according to Clinical and Laboratory Standards Institute guidelines. Cells were culture from singles colonies in MHIIB medium for 24 h at 37° C. in agitation (200 RPM). The cultures were then diluted using the same media to reach an OD600 of 0.1. Then, 50 µL of the diluted cultures were added to the plates holding 50 µL of serially diluted compounds in MHIIB. The plates were incubated at 37° C. for 20 h. The starting inoculum was fixated to 10^5 colony-forming units per ml.

[2] = target: T1, E. coli DNA topoisomerase IV; experiment: SDFQ-based DNA relaxation assay with E. coli DNA topoisomerase IV; assay type: biochemical
Description: as §1

E. coli DNA gyrase [3] = target: T2, E. coli DNA gyrase (Escherichia coli (strain K12), UniProt P0AES4+P0AES6); experiment: SDFQ-based DNA gyrase inhibition assay; assay type: biochemical; conditions: Table 8; read-out: IC50 Gyrase SDFQ
Description: 100 ng of DNA gyrase was used to supercoil the rx pAB1_FL905 in the presence of different concentrations of a gyrase inhibitor. […] The IC50 values were estimated by nonlinear fitting of the following equation: […]
where F is the fluorescence intensity at the x concentration of an min inhibitor. Fmax and Fmin are the maximum and minimum fluorescence of the DNA sample, respectively. P is a slope parameter.

B. subtilis (ATCC 6633) = experiment: Minimum inhibitory concentration, broth microdilution; conditions: Bacillus subtilis
Description: as §2

E. coli imp = experiment: microbe, parasite or virus in culture; conditions: Escherichia coli, read-out: MIC E. coli imp BAS3023
Description: as §2

S. aureus (ATCC 14775) = experiment: Minimum inhibitory concentration, broth microdilution; conditions: Staphylococcus aureus
MRSA = experiment: as above; conditions: Staphylococcus aureus
E. coli DNA gyrase [4] = target: T2, E. coli DNA gyrase; experiment: Agarose gel-based DNA gyrase inhibition assay; assay type: biochemical; conditions: for IC50: Table 8, read-out: IC50 Gyrase Gel-based
Description: 100 ng of DNA gyrase was used to supercoil the rx pAB1 in the presence of different concentrations of a gyrase inhibitor. […] Samples were analyzed by electrophoresis in 1% w/v agarose gels followed by ethidium bromide staining and photographed under UV light.

E. coli DNA gyrase [5] = target: T2, E. coli DNA gyrase; experiment: E. coli DNA gyrase ATPase assay; assay type: biochemical
Description: E. coli DNA gyrase ATPase assays were performed in 60 µL of 1 ×gyrase ATPase buffer (10 mM Tris.HCl (pH 7.5), 0.2 mM EDTA, 1 mM magnesium chloride, 1 mM DTT, and 2% (w/v) glycerol) containing 50 nM E. coli DNA gyrase, 200 ng rx pAB1, 0.8 mM Phosphoenol pyruvate, 1.2 units of Pyruvate kinase, 1.7 units of lactate dehydrogenase, and 0.4 mM of NADH at 37° C. After the reaction mixtures are incubated on ice for 5 minutes, 2 mM of ATP is added to initiate the reaction. Absorbance at OD340nm is monitored for up to 30 minutes at 37° C. in a spectrophotometer.

E. coli DNA gyrase [6] = target: T2, E. coli DNA gyrase; experiment: biochemical; assay type: biochemical
Mtb DNA gyrase = Mtb DNA gyrase (Mycobacterium tuberculosis (strain ATCC 25618 / H37Rv), UniProt P9WG45+P9WG47); experiment: Mtb DNA gyrase inhibition assay (gel-based); assay type: biochemical
Description: The IC50 against E. coli (A) and Mtb (C) gyrase were determined using the gel-based gyrase inhibition assays. The gyrase mediated DNA cleavage assays (B and D) were performed using pBR322. (A) 229 inhibits E. coli gyrase. Lane 1, rx pAB1. […] Lane 1, rx pAB1. […] 100 µM of CPDs were used. Symbols rx, nk, In, and sc represent relaxed, nicked, linear, and supercoiled DNA, respectively.
Agarose gel-based DNA gyrase inhibition assays were performed in 30 µL of 1 ×gyrase buffer (35 mM Tris-HCl, 24 mM KCl, 4 mM MgCl2, 2 mM DTT, 1.75 mM ATP, 0.1 mg/mL BSA, 6.5% glycerol, pH7.5) containing 400 ng of rx pAB1 at 37° C. 100 ng of DNA gyrase was used to supercoil the rx pAB1 in the presence of different concentrations of a gyrase inhibitor. After 15 minutes of incubation with the inhibitor at 37° C., all reactions were stopped with 1 µL of stop solution (3% SDS and 250 mM EDTA). Samples were analyzed by electrophoresis in 1% w/v agarose gels followed by ethidium bromide staining and photographed under UV light.

Mtb = Mtb whole cell assay (% inhibition, MIC); assay type: cell-based, Mycobacterium tuberculosis; conditions: Mycobacterium tuberculosis
in vitro [7] = conditions: human
in vitro [8] = conditions: mouse
E. coli DNA gyrase [9] = target: T2, E. coli DNA gyrase; experiment: DNA gyrase mediated DNA cleavage assay; assay type: biochemical; conditions: pBR322
Description: 250 ng of supercoiled pBR322 plasmid were incubated with 50 nM of E. coli DNA gyrase in reactions containing 35 mM Tris-HCl, 24 mM KCl, 4 mM MgCl2, 2 mM DTT, 0.1 mg/mL BSA, 6.5% glycerol, and 1.75 mM ATP, in presence of 200 µM of compounds, at 37° C. for 15 min. Then, 0.2% (w/v) of SDS and 0.1 mg/mL proteinase K were added, and samples were incubated at 37° C. for 1 h. […] Samples were examined by electrophoresis in 1% w/v agarose gel containing 0.5 µg/mL ethidium bromide and photographed under UV light.

M. abscessus = experiment: MIC against M. abscessus; assay type: cell-based, Mycobacterium abscessus; conditions: Mycobacteroides abscessus
[10] = ATCC25922, read-out: MIC E coli ATCC 25922, Table 9
[11] = ATCC6633, read-out: MIC B. subtilis ATCC 6633
[12] = ATCC14775, read-out: MIC S. aureus ATCC 14775
[13] = ATCC33591 / MRSA, read-out: MIC MRSA ATCC 33591
[14] = ATCC14775, read-out: Minimum Inhibitory Concentration S.aureus
[15] = MRSA, read-out: Minimum Inhibitory Concentration S.aureus MRSA
[16] = ATCC6633, read-out: Minimum Inhibitory Concentration B.subtilis
[17] = ATCC25922, read-out: MIC (µM) Ec, E. coli strain ATCC25922
[18] = Table 10, read-out: IC50 (µM) Mtb gyrase
[19] = ATCC14775, read-out: MIC (µM) Sa

T1 sequence (P0AFI2 whole entry, looked up): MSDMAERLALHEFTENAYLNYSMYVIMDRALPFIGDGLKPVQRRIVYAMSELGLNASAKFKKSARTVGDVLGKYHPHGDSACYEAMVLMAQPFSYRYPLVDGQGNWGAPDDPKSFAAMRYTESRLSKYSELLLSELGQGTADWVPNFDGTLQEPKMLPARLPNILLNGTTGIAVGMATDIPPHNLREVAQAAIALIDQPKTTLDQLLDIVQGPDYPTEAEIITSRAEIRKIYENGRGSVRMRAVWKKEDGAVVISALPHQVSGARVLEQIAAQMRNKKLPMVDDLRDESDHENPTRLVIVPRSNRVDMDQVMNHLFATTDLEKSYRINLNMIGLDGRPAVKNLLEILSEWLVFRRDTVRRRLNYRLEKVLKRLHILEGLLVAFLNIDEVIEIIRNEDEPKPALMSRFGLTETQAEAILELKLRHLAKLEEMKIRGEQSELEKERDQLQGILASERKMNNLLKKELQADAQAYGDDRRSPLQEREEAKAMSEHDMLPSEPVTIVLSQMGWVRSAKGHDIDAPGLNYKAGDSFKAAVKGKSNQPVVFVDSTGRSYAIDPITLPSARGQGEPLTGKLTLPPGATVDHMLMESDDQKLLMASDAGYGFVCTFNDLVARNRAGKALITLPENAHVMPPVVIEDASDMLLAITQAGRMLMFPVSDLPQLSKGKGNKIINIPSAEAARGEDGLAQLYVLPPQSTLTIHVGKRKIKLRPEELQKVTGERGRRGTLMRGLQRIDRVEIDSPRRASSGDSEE
T1 sequence (P20083 whole entry, looked up): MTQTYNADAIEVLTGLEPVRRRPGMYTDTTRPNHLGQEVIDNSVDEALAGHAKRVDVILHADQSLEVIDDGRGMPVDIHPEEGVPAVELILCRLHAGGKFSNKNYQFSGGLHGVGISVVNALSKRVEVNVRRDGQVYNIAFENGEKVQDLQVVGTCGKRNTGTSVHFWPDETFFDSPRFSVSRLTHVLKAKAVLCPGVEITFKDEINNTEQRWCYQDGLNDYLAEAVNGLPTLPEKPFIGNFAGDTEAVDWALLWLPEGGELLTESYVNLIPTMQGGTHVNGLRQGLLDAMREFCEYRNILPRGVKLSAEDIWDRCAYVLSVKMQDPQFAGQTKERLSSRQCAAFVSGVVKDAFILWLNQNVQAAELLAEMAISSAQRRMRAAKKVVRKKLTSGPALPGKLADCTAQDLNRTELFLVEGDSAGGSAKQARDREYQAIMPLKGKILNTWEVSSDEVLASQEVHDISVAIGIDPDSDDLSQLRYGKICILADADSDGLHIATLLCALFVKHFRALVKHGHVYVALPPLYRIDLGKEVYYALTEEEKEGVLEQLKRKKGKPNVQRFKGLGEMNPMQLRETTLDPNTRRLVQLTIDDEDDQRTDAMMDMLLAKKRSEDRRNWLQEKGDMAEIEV

## CCCCOC(=O)c1cc(O)c(O)c(O)c1 [Butyl gallate, butyl gallate]
[1]
  IC50: > 100 µM
E. coli (ATCC 25922); [10]
  MIC: > 200 µM
[2]
  IC50: > 100 µM
E. coli DNA gyrase [3]
  IC50: > 100 µM
B. subtilis (ATCC 6633); [11]
  MIC: > 64 µg/mL and > 200 µM
E. coli imp
  MIC: > 200 µM
S. aureus (ATCC 14775); [12]
  MIC: > 200 µM
MRSA; [13]
  MIC: > 200 µM
E. coli DNA gyrase [4]
  IC50: > 100 µM

## Cc1c(CCC(=O)O)c(=O)oc2c(C)c3occ(-c4ccc(Br)cc4)c3cc12 [Compound 48]
E. coli DNA gyrase [5]
  Ki: 0.15 µM
E. coli DNA gyrase [5]; AB-MECA and gallates at 100 µM
  inhibition of the ATPase activities of E. coli DNA gyrase: ATP competitive inhibitor
E. coli DNA gyrase [6]
  inhibition of E. coli DNA gyrase activities: potent bacterial DNA gyrase inhibitors
E. coli DNA gyrase [6]; Table 5, E. coli gyrase, read-out: IC50 (µM) EC
  IC50: 4.2 µM
Mtb DNA gyrase; Table 5, Mtb gyrase, read-out: IC50 (µM) Mtb
  IC50: 57 µM
Mtb; Table 5 (same values in Table 6 at 20 µM)
  inhibition at 20 µM: 38.6%
S. aureus (ATCC 14775); ATCC14775, read-out: MIC (µM) SA
  MIC: 3.1 µM (≈ 1.37 µg/mL)
S. aureus (ATCC 14775); [14]
  MIC: 3.12 µM (≈ 1.38 µg/mL)
MRSA; MRSA, read-out: MIC (µM) MRSA
  MIC: 3.1 µM (≈ 1.37 µg/mL)
MRSA; [15]
  MIC: 3.12 µM (≈ 1.38 µg/mL)
E. coli DNA gyrase [4]; 50 µM of compounds
  inhibition of E. coli DNA gyrase activities: completely inhibited
E. coli DNA gyrase [4]; 200 µM of compounds
  inhibition of E. coli DNA gyrase activities: completely inhibited

## O=C(O)c1ccc(/N=N/C2C(O)=Nc3ccc(F)cc32)cc1 (stereo not shown) [Compound 127]
In vitro [7]
  IC50: > 200 µM
In vitro [8]
  IC50: > 200 µM
B. subtilis (ATCC 6633); [16]
  MIC: 25 µM (≈ 7.48 µg/mL)
S. aureus (ATCC 14775); [14]
  MIC: 50 µM (≈ 15 µg/mL)
MRSA; [15]
  MIC: 50 µM (≈ 15 µg/mL)
E. coli DNA gyrase [4]; 50 µM of compounds
  inhibition of E. coli DNA gyrase activities: completely inhibited

## Cc1cccc2c1N=C(O)C2/N=N/c1ccc(C(=O)O)cc1 (stereo not shown) [Compound 128]
In vitro [7]
  IC50: > 200 µM
In vitro [8]
  IC50: > 200 µM
B. subtilis (ATCC 6633); [16]
  MIC: 25 µM (≈ 7.38 µg/mL)
S. aureus (ATCC 14775); [14]
  MIC: 50 µM (≈ 14.8 µg/mL)
MRSA; [15]
  MIC: 50 µM (≈ 14.8 µg/mL)
E. coli DNA gyrase [4]; 50 µM of compounds
  inhibition of E. coli DNA gyrase activities: completely inhibited

## O=C(O)CCNc1ccc(NCCC(=O)O)c2c1C(=O)c1ccccc1C2=O [Compound 173, 3-({4-[(2-carboxyethyl)amino]-9,10-dioxo-9,10-dihydroanthracen-1-yl}amino)propanoic acid]
E. coli DNA gyrase [9]
  E. coli DNA gyrase-mediated DNA breaks and nicking: cause DNA nicking
E. coli DNA gyrase [6]; IC50 (15-[…] µM), bin of Table 2
  IC50: 15 to 25 µM
MRSA; [15]
  MIC: 100 µM (≈ 38.2 µg/mL)
E. coli DNA gyrase [4]; 50 µM of compounds
  inhibition of E. coli DNA gyrase activities: completely inhibited

## O=C1C=C(NCCc2cc(Br)c(O)c(Br)c2)C(=O)c2ncccc21 [Compound 232, 7-((2-(3,5-Dibromo-4-hydroxyphenyl)ethyl)amino)-5,8-quinolinedione]
E. coli DNA gyrase [9]
  E. coli DNA gyrase-mediated DNA breaks and nicking: cause DNA nicking
E. coli DNA gyrase [6]; IC50 (50-200 µM), bin of Table 2
  IC50: 50 to 200 µM
E. coli DNA gyrase [4]; 50 µM of compounds
  inhibition of E. coli DNA gyrase activities: inhibited
E. coli DNA gyrase [4]; 200 µM of compounds
  inhibition of E. coli DNA gyrase activities: completely inhibited

## C[n+]1c(-c2ccc(/C=N/NC(=O)c3cccc(C(=O)N/N=C/c4ccc(-c5cn6ccccc6[n+]5C)cc4)c3)cc2)cn2ccccc21 [Compound 259]
E. coli (ATCC 25922); [17]
  MIC: > 200 µM
In vitro [7]
  IC50: > 200 µM
M. abscessus
  MIC: > 200 µM
Mtb DNA gyrase; [18]
  IC50: 2.6 µM
Mtb
  MIC: > 200 µM
S. aureus (ATCC 14775); [19]
  MIC: 200 µM

## C[n+]1c(-c2ccc(/C=N/NC(=O)c3cncc(C(=O)N/N=C/c4ccc(-c5cn6ccccc6[n+]5C)cc4)c3)cc2)cn2ccccc21 [Compound 260]
E. coli (ATCC 25922); [17]
  MIC: > 200 µM
In vitro [7]
  IC50: > 200 µM
M. abscessus
  MIC: > 200 µM
Mtb DNA gyrase; [18]
  IC50: 92 µM
Mtb
  MIC: > 200 µM
S. aureus (ATCC 14775); [19]
  MIC: > 200 µM

## CCCCSc1ccn2cc(-c3ccc(/C=N/NC(=O)c4ccc(C(=O)N/N=C/c5ccc(-c6cn7ccc(SCCCC)cc7[n+]6C)cc5)cc4)cc3)[n+](C)c2c1 [Compound 262]
E. coli (ATCC 25922); [17]
  MIC: > 200 µM
In vitro [7]
  IC50: > 200 µM
M. abscessus
  MIC: > 200 µM
Mtb DNA gyrase; [18]
  IC50: 118 µM
Mtb
  MIC: 122 µM
S. aureus (ATCC 14775); [19]
  MIC: > 200 µM

## C[n+]1c(-c2ccc(/C=N/NC(=O)c3ccc(C(=O)N/N=C/c4ccc(-c5cn6ccccc6[n+]5C)cc4)nc3)cc2)cn2ccccc21 [Compound 264]
In vitro [7]
  IC50: > 200 µM
M. abscessus
  MIC: 13.5 µM
Mtb DNA gyrase; [18]
  IC50: 2.1 µM
Mtb
  MIC: 6.2 µM
S. aureus (ATCC 14775); [19]
  MIC: 100 µM

## CCCCCCCCCCCCOC(=O)c1cc(O)c(O)c(O)c1 [Dodecyl gallate, dodecyl gallate]
[1]
  inhibition of E. coli DNA topoisomerase IV: strongly inhibit
  IC50: 50 µM
E. coli (ATCC 25922); [10]
  MIC: > 200 µM
[2]
  IC50: 36.9 µM
E. coli DNA gyrase [3]
  IC50: 13.8 µM
B. subtilis (ATCC 6633); [11]
  MIC: 8 µg/mL and 25 µM to 50 µM
E. coli imp
  MIC: 200 µM (≈ 67.7 µg/mL)
S. aureus (ATCC 14775); [12]
  MIC: 67.7 µg/mL and 200 µM
MRSA; [13]
  MIC: 200 µM (≈ 67.7 µg/mL)
E. coli DNA gyrase [4]
  IC50: 15 µM

## CO[C@@H]1[C@@H](OC(N)=O)[C@@H](O)[C@H](Oc2ccc3c(O)c(NC(=O)c4ccc(O)c(CC=C(C)C)c4)c(=O)oc3c2C)OC1(C)C [Novobiocin, novobiocin, reference compound]
E. coli (ATCC 25922); [10]
  MIC: 158 µM (≈ 96.5 µg/mL)
B. subtilis (ATCC 6633); [11]
  MIC: < 625 µM
E. coli imp
  MIC: 6.25 µM (≈ 3.83 µg/mL)
S. aureus (ATCC 14775); [12]
  MIC: < 6.25 µM
MRSA; [13]
  MIC: < 6.25 µM
